Test results reported in patent publication US8148391B2 (Cephalon, Inc., priority 2006, dated 2012).
Where two headings read alike, the source gives them in different places. Blank lines part the entries; values can stand above or below the compound they belong to.

Legend:
[1] = biological target: T1, baculovirus-expressed ALK (Homo sapiens, UniProt Q9UM73); assay: ALK Kinase Assay (ELISA-type, time-resolved fluorescence); format: biochemical
T1 construct: host or cells: baculovirus expression system
T1 sequence (Q9UM73 19-1620): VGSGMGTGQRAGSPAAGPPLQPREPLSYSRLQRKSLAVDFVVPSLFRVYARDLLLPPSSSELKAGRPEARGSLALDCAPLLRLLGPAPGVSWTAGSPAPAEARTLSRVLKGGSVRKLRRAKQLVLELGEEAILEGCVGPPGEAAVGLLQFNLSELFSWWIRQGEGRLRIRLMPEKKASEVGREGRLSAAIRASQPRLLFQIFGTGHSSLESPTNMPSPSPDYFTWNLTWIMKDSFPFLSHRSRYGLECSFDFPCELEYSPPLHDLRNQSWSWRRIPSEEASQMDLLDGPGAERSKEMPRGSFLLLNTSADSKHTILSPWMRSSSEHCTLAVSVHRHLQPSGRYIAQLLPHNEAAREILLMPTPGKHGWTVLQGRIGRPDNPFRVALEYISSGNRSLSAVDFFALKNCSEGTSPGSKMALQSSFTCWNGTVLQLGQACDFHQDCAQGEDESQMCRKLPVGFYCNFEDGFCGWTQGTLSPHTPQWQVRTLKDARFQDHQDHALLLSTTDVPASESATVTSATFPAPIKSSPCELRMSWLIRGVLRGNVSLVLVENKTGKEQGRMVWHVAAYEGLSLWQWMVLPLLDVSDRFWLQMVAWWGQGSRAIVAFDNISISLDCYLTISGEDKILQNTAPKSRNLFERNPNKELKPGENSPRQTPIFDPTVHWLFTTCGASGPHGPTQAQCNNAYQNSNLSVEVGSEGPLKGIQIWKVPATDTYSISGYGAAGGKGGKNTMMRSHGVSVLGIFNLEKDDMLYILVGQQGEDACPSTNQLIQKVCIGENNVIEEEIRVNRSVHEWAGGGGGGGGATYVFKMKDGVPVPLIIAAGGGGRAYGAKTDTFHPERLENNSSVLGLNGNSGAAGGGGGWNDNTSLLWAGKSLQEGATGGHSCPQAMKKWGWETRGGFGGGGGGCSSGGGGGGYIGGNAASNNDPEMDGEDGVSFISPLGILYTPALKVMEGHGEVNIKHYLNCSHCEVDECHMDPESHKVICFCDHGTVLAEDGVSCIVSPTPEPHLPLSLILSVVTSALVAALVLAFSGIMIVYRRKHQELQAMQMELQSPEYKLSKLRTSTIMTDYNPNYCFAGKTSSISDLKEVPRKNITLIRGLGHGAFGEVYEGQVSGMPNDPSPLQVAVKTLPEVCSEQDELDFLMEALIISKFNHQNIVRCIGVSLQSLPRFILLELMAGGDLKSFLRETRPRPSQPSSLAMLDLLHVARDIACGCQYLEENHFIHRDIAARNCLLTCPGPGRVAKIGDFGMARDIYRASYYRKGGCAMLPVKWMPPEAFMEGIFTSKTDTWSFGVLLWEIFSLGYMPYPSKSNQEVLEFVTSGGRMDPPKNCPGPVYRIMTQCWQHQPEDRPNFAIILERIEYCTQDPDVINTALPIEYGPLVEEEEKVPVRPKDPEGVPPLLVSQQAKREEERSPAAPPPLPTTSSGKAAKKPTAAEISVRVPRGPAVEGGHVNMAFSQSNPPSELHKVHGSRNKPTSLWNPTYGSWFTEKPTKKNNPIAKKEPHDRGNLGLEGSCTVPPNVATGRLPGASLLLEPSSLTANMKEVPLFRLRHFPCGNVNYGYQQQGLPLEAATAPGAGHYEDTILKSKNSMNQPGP
Outline: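 Plates coated with phospholipase C-γ substrate (10 μg/mL in TBS); reaction started with 30 ng/ml ALK and run 15 min at 37° C. Phosphorylated substrate detected with Eu-N1-labeled PT66 antibody. IC50 from sigmoidal variable-slope fit of percent inhibition vs log concentration.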

[2] = biological target: T2, c-Met (cytoplasmic domain) (Homo sapiens, UniProt P08581); assay: c-Met Kinase Assay (same methods as for ALK, with modifications); format: biochemical
T2 construct: 10 ng/mL c-Met (cytoplasmic domain, Invitrogen Corporation #PV3143); purchased Invitrogen Corporation PV3143
T2 sequence (P08581 956-1390 limits assumed): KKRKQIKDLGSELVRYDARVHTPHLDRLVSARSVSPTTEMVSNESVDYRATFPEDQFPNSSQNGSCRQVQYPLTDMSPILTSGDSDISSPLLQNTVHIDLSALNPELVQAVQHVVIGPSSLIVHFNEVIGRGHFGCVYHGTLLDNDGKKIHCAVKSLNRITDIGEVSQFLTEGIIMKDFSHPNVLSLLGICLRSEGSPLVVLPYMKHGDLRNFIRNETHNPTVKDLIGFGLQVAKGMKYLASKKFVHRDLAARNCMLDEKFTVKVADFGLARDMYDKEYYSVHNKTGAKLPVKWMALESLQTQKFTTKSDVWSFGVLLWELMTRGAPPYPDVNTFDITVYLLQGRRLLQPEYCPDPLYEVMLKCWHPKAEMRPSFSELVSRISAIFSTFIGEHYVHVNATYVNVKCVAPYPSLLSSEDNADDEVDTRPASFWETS
Outline: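 Europium-labeled PT66 antibody (Eu-N1) detects substrate phosphorylation on wells coated with phospholipase C-γ at 10 μg/mL. The kinase, the cytoplasmic domain of c-Met at 10 ng/mL, starts the reaction, which proceeds 15 minutes at 37° C.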

[3] = 1 μM ATP (Km level), read-out: ALK Activity (ALK Kinase Inhibition, IC50)
[4] = 1 μM ATP (Km level), read-out: cMet Activity (c-Met Kinase Inhibition, IC50)
[5] = ALK kinase inhibition, 1 μM ATP, read-out: ALK Activity
[6] = c-Met kinase inhibition, 1 μM ATP, read-out: cMet Activity
[7] = ALK kinase inhibition, 1 μM ATP (Km level), read-out: ALK Activity
[8] = c-Met kinase inhibition, 1 μM ATP (Km level), read-out: cMet Activity

Compound: C#CCNC(=O)c1cccc(F)c1Nc1nc(Nc2ccc3c(c2)N(C(=O)CN2C(=O)c4ccccc4C2=O)CCCC3(C)C)ncc1Cl [Example 1618, 2-(5-Chloro-2-{1-[2-(1,3-dioxo-1,3-dihydro-isoindol-2-yl)-acetyl]-5,5-dimethyl-2,3,4,5-tetrahydro-1H-benzo[b]azepin-8-ylamino}-pyrimidin-4-ylamino)-3-fluoro-N-prop-2-ynyl-benzamide]
IC50 [1, 5]: > 10000 nM
IC50 [2, 6]: < 100 nM

Compound: N-(2-{5-Chloro-2-[3-(2-methoxy-ethyl)-2,3,4,5-tetrahydro-1H-benzo[d]azepin-7-ylamino]-pyrimidin-4-ylamino}-phenyl)-methanesulfonamide [Example 37]
IC50 [1, 7]: < 100 nM
IC50 [2, 8]: 1000 to 10000 nM

Compound: CCN1C(=O)CCCc2c1ccc(Nc1ncc(Cl)c(Nc3ccccc3-c3ncccc3C)n1)c2OC [Example 984, 7-{5-Chloro-4-[2-(3-methyl-pyridin-2-yl)-phenylamino]-pyrimidin-2-ylamino}-1-ethyl-6-methoxy-1,3,4,5-tetrahydro-benzo[b]azepin-2-one]
IC50 [1, 3]: < 100 nM
IC50 [2, 4]: > 10000 nM

Compound: CNC(=O)c1ccccc1Nc1nc(Nc2ccc3c(c2)C2CCC3CN(C(C)C)C2)ncc1Cl (stereo not shown) [Example 273, 2-[5-Chloro-2-(10-isopropyl-10-aza-tricyclo[6.3.2.0*2,7*]trideca-2,4,6-trien-4-ylamino)-pyrimidin-4-ylamino]-N-methyl-benzamide]
IC50 [1, 7]: < 100 nM
IC50 [2, 8]: < 100 nM

Continued, values first:

IC50 [1, 3]: < 100 nM
IC50 [2, 4]: > 10000 nM
Compound: CCN1C(=O)CCCc2c1ccc(Nc1ncc(Cl)c(Nc3ccc(OC)cc3-n3cccn3)n1)c2OC [Example 613, 7-[5-Chloro-4-(4-methoxy-2-pyrazol-1-yl-phenylamino)-pyrimidin-2-ylamino]-1-ethyl-6-methoxy-1,3,4,5-tetrahydro-benzo[b]azepin-2-one]

IC50 [1, 5]: < 100 nM
IC50 [2, 6]: < 100 nM
Compound: COCCN1CCc2ccc(Nc3ncc(Cl)c(Nc4ccccc4S(=O)(=O)N4CCC(O)C4)n3)cc2CC1 (stereo not shown) [Example 1492, 1-(2-{5-Chloro-2-[3-(2-methoxy-ethyl)-2,3,4,5-tetrahydro-1H-benzo[d]azepin-7-ylamino]-pyrimidin-4-ylamino}-benzenesulfonyl)-pyrrolidin-3-ol]

IC50 [1, 3]: < 100 nM
IC50 [2, 4]: 1000 to 10000 nM
Compound: CCN1CCN(CC)c2cc(Nc3ncc(Cl)c(Nc4cc(Cl)ccc4OC)n3)ccc2C1 [Example 719, 5-Chloro-N*4*(5-chloro-2-methoxy-phenyl-N*2*-(1,4-diethyl-2,3,4,5-tetrahydro-1H-benzo[e][1,4]diazepin-8-yl)-pyrimidine)-2,4-diamine]

IC50 [1, 3]: < 100 nM
IC50 [2, 4]: 100 to 1000 nM
Compound: Cn1ccnc1-c1ccccc1Nc1nc(Nc2ccc3c(c2)CCC(NCC(F)(F)F)CC3)ncc1Cl (stereo not shown) [Example 655, 5-Chloro-N*4*-[2-(1-methyl-1H-imidazol-2-yl)-phenyl]-N*2*-[7-(2,2,2-trifluoro-ethylamino)-6,7,8,9-tetrahydro-5H-benzocyclohepten-2-yl]-pyrimidine-2,4-diamine]

IC50 [1, 7]: < 100 nM
IC50 [2, 8]: > 10000 nM
Compound: CCN1CCc2ccc(Nc3ncc(Cl)c(N[C@@H]4CCCC[C@H]4NS(C)(=O)=O)n3)c(OC)c2CC1 [Example 232, N-{(1R,2R)-2-[5-Chloro-2-(3-ethyl-6-methoxy-2,3,4,5-tetrahydro-1H-benzo[d]azepin-7-ylamino)-pyrimidin-4-ylamino]-cyclohexyl}-methanesulfonamide]

IC50 [1, 5]: < 100 nM
IC50 [2, 6]: 100 to 1000 nM
Compound: C=CCOc1cc(N(C)C)cc(F)c1Nc1nc(Nc2ccc3c(c2)CCN(CCOC)CC3)ncc1Cl [Example 1710, N*4*-(2-Allyloxy-4-dimethylamino-6-fluoro-phenyl)-5-chloro-N*2*-[3-(2-methoxy-ethyl)-2,3,4,5-tetrahydro-1H-benzo[d]azepin-7-yl]-pyrimidine-2,4-diamine]

IC50 [1, 3]: 100 to 1000 nM
IC50 [2, 4]: 1000 to 10000 nM
Compound: CC1(C)CCC(=O)Nc2ccc(Nc3ncc(Cl)c(Nc4cccc(-c5cccnc5)c4)n3)cc21 [Example 993, 7-[5-Chloro-4-(3-pyridin-3-yl-phenylamino)-pyrimidin-2-ylamino]-5,5-dimethyl-1,3,4,5-tetrahydro-benzo[b]azepin-2-one]
